In patent publication US7985760B2, “Piperidinetriol derivatives as inhibitors of glycosyceramid synthase” (Actelion Pharmaceuticals Ltd., priority 2002, dated 2011):
Read-outs that look alike come from different tables or passages of the source.

Columns and labels:
[1] = target: T1, non-lysosomal-β-glucocerebrosidase (Homo sapiens, UniProt Q9HCG7); experiment: Inhibition of non-lysosomal-β-glucocerebrosidase; assay type: biochemical; details: whole cell extracts of MCF7 as enzyme source; 4-MU β-glucoside substrate; pH 5.8
T1 construct: whole cell extracts of MCF7(a human breast carcinoma cell line) was used as the source of the enzyme; endogenous in cells; host or cells: MCF7 whole cell extract
T1 sequence (Q9HCG7 1-927): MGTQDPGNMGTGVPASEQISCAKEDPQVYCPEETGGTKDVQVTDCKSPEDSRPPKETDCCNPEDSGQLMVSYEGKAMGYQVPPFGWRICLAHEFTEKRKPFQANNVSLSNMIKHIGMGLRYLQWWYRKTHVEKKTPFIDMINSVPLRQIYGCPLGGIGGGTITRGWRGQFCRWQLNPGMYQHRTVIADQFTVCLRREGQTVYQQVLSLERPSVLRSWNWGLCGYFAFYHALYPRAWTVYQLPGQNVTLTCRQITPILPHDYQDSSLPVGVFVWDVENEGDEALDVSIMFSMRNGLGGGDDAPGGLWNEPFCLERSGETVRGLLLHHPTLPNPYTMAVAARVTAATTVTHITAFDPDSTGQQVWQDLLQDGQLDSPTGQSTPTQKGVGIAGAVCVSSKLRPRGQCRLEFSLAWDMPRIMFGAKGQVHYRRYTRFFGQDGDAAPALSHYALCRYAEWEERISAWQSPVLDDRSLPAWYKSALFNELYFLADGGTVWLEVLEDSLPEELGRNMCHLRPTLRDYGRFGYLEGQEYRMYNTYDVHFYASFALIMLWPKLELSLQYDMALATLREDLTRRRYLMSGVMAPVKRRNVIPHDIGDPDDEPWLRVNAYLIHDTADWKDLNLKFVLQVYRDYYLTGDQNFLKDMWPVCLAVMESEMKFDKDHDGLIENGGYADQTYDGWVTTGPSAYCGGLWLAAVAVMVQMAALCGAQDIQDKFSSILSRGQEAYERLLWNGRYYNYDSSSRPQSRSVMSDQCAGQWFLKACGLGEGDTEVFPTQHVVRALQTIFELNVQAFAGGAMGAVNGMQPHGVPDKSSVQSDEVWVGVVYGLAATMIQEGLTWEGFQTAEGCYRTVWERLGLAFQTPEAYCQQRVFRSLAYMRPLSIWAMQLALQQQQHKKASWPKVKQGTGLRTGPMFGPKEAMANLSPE

[2] = target: T2, human recombinant GCS expressed in insect cells (Homo sapiens, UniProt Q16739); experiment: Inhibition of GCS; assay type: biochemical
T2 construct: made in house; host or cells: insect cells
T2 sequence (Q16739 1-394): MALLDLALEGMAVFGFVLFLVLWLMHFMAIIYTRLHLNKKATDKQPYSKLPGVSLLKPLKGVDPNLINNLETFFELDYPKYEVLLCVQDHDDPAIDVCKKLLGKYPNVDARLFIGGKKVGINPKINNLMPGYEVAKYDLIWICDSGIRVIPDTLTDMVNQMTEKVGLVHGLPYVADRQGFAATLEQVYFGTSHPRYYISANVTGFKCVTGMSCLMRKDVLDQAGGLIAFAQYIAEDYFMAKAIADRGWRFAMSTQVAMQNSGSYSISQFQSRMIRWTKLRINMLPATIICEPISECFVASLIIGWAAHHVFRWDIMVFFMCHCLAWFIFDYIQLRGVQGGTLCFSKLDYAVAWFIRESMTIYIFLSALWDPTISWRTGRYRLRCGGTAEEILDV

human GCS = target: T3, human GCS (Homo sapiens, UniProt Q16739); experiment: Cell-based IC50 for GCS inhibition by measuring glucosylceramide (GlcCer) depletion; details: MCF-7 cells cultured for 5-7 days; GlcCer quantified by HPTLC; read-out: Inhibition of GCS Cellular-based (IC50 μM)
T3 construct: Human mammary epithelial cells (MCF-7) were cultured for 5-7 days, with varying concentrations of a compound of the invention; endogenous in cells; host or cells: MCF-7
T3 sequence (Q16739 1-394): T2 sequence (Q16739 1-394)

[3] = human recombinant GCS expressed in insect cells, read-out: Inhibition of GCS (IC50)

Row | IC50 [1] | IC50 [2, 3] | IC50 (human GCS) | IC50 [2] | SMILES
1 | 120 nM | 550 nM | – | – | CCN(CC)c1ccc(CN2C[C@H](O)[C@@H](O)[C@H](O)[C@@H]2CO)c(F)c1C#N [Example 18, 3,4,5-Piperidinetriol, 2-(hydroxymethyl)-1-[(3-cyano-4-(diethylamino)-2-fluorophenyl)-methyl]-, (2S,3R,4R,5S)]
2 | 4 nM | 410 nM | – | – | OC[C@H]1[C@@H](O)[C@H](O)[C@@H](O)CN1Cc1ccc(Oc2ccccc2)cc1 [Example 19, 3,4,5-Piperidinetriol, 2-(hydroxymethyl)-1-[(4-phenoxyphenyl)methyl]-, (2S,3R,4R,5S)]
3 | 55 nM | 2500 nM | – | – | OC[C@H]1[C@@H](O)[C@H](O)[C@@H](O)CN1Cc1ccc2c(c1)OCCO2 [Example 20, 3,4,5-Piperidinetriol, 1-[(3,4-ethylenedioxyphenyl)methyl]-2-(hydroxymethyl)-, (2S,3R,4R,5S)]
4 | 910 nM | – | – | 910 nM | O=S(=O)(Nc1ccc(CN2C[C@H](O)[C@@H](O)[C@H](O)[C@@H]2CO)cc1)c1ccccc1 [Example 22, Benzenesulfonamide, N-[4-[[(2S,3S,4R,5S)-3,4,5-trihydroxy-2-(hydroxymethyl)-1-piperidinyl]methyl]-phenyl]-,]

The remaining lines, values behind:

Row | SMILES | IC50 [1] | IC50 [2, 3] | IC50 (human GCS) | IC50 [2]
5 | COc1cc(OCc2ccccc2)ccc1CN1C[C@H](O)[C@@H](O)[C@H](O)[C@@H]1CO [Example 1, 3,4,5-Piperidinetriol, 2-(hydroxymethyl)-1-[[2-methoxy-4-(phenylmethoxy)phenyl]methyl]-, (2S,3R,4R,5S)] | 110 nM | 2700 nM | – | –
6 | CN(C)c1ccc(CN2C[C@H](O)[C@@H](O)[C@H](O)[C@@H]2CO)c(F)c1C#N [Example 3, 3,4,5-Piperidinetriol, 1-[(3-cyano-4-dimethylamino-2-fluorophenyl)methyl]-2-(hydroxymethyl)-, (2S,3R,4R,5S)] | 750 nM | 1800 nM | – | –
7 | O=C(NCc1ccc(F)cc1)c1ccc(CN2C[C@H](O)[C@@H](O)[C@H](O)[C@@H]2CO)cc1 [Example 6, Benzamide, N-[(4-fluorophenyl)methyl]-4-[[(2S,3R,4R,5S)-3,4,5-trihydroxy-2-(hydroxymethyl)-1-piperldinyl]methyl]-,] | 69 nM | 670 nM | – | –
8 | CC(NC(=O)c1ccc(CN2C[C@H](O)[C@@H](O)[C@H](O)[C@@H]2CO)cc1)c1ccccc1 (stereo partly drawn) [Example 7, Benzamide, N-[1-phenylethyl]4-[[(2S,3R,4R,5S)-3,4,5-trihydroxy-2-(hydroxymethyl)-1-piperidinyl]-methyl]-,] | 84 nM | 280 nM | – | –
9 | C[C@@H](NC(=O)c1ccc(CN2C[C@H](O)[C@@H](O)[C@H](O)[C@@H]2CO)cc1)c1ccc(F)cc1 [Example 8, Benzamide, N-[1-(R)-(4-fluorophenyl)ethyl]4-[[(2S,3R,4R,5S)-3,4,5-trihydroxy-2-(hydroxymethyl)-1-piperidinyl]methyl]-,] | 42 nM | 490 nM | – | –
10 | OC[C@H]1[C@@H](O)[C@H](O)[C@@H](O)CN1Cc1ccc(OCc2ccccc2)c(Cl)c1 [Example 10, 3,4,5-Piperidinetriol, 2-(hydroxymethyl)-1-[[3-chloro-4-(phenylmethoxy)phenyl]methyl]-, (2S,3R,4R,5S)] | 5 nM | 320 nM | – | –
11 | OC[C@H]1[C@@H](O)[C@H](O)[C@@H](O)CN1Cc1ccc(OCc2ccccc2)cc1 [Example 11, 3,4,5-Piperidinetriol, 2-(hydroxymethyl)-1-[[4-(phenylmethoxy)phenyl]methyl]-, (2S,3R,4R,5S)] | 3 nM | 210 nM | < 0.01 µM | –
12 | OC[C@H]1[C@@H](O)[C@H](O)[C@@H](O)CN1Cc1ccc(/C=C/c2ccccc2)cc1 [Example 13, 3,4,5-Piperidinetriol, 1-[(4-trans-styrylphenyl)methyl]-2-(hydroxymethyl)-, (2S,3R,4R,5S)] | 2 nM | 290 nM | – | –
13 | O=C(c1ccc(CN2C[C@H](O)[C@@H](O)[C@H](O)[C@@H]2CO)cc1)N1CCCc2ccccc21 [Example 14] | 19 nM | 1400 nM | – | –
